Tested on: Utrophin A promoter linked to a luciferase reporter gene
Test: Luciferase reporter assay (murine H2K cells)
Assay type: cell-based
Details: for activity at 10 µM: Mus musculus, H2K mdx, read-out: Activity
Procedure: 1. Luciferase Reporter Assay (Murine H2K Cells)
The cell line used for the screen is an immortalized mdx mouse H2K cell line that has been stably transfected with a plasmid containing […] fragment of the Utrophin A promoter including the first untranslated exon linked to a luciferase reporter gene. Under conditions of low temperature and interferon containing media, the cells remain as myoblasts. These are plated into 96 well plates and cultured in the presence of compound for three days. The level of luciferase is then determined by cell lysis and reading of the light output from the expressed luciferase gene utilising a plate luminometer.
H2K/mdx/Utro A reporter Cell Line Maintenance
The cells were grown at 33° C. in the presence of 10% CO2. To remove the myoblasts for platting, they were incubated with Trypsin EDTA until the monolayer started to detach.
The plates were then incubated at 33° C. in the presence of 10% CO2 for 24 hrs. Compounds were dosed by adding 10 μl of diluted compound to each well giving a final concentration of 10 μM. The plates were then incubated for a further 48 hrs. Cells were then lysed in situ following the manufacture's protocols (Promega Steady-Glo Luciferase Assay System (E2520). Then counted for 10 seconds using a plate luminometer (Victor1420).
Compounds for screening were stored at −20° C. as 10 mM stocks in 100% DMSO until required.
Biological activity as assessed using the luciferase reporter assay in murine H2K cells, and is classified as follows: […]

[1] = luciferase level relative to control, H2K/mdx/Utro A reporter cells, compound 10 μM final concentration
[2] = luciferase reporter assay in murine H2K cells, classified relative to control

Row | Structure (SMILES) | activity at 10 µM [1] | Activity [2] | also measured
1 | CC(C)CNc1ccc2oc(-c3ccccc3)nc2c1 [Example 168, N-isobutyl-2-phenylbenzo[d]oxazol-5-amine] | > 401% | – | –
2 | CC(=O)Nc1ccccc1-c1ccc2oc(-c3ccc(Cl)cc3)nc2c1 [Example 294, N-(2-(2-(4-chlorophenyl)benzo[d]oxazol-5-yl)phenyl)acetamide] | < 200% | – | –
3 | CC(C)C(=O)Nc1ccc2oc(-c3ccccc3F)nc2c1 [Example 243, N-(2-(2-fluorophenyl)benzo[d]oxazol-5-yl)isobutyramide] | 301 to 400% | – | –
4 | Cc1cc(-c2nc3ccccc3s2)ccc1[N+](=O)[O-] [Example 599] | – | ++++ (Above 401% relative to control) | –
5 | Nc1ccc2sc(-c3ccc(Cl)c(Cl)c3)nc2c1 [Example 284, 2-(3,4-dichlorophenyl)benzo[d]thiazol-5-amine] | > 401% | – | –
6 | CC(=O)Nc1ccc(-c2nc3cc(Cl)ccc3o2)cc1 [Example 317, N-(4-(5-chlorobenzo[d]oxazol-2-yl)phenyl)acetamide] | 301 to 400% | – | –
7 | Clc1ccc(-c2nc3cc(CN4CCCCC4)ccc3o2)cc1 [Example 469] | – | + (Up to 200% relative to control) | –
8 | O=C(Cc1ccccc1)Nc1ccc2oc(-c3ccc(Cl)cc3)nc2c1 [Example 97, N-(2-(4-chlorophenyl)benzo[d]oxazol-5-yl)-2-phenylacetamide] | 201 to 300% | – | –
9 | O=S(=O)(c1ccc(-c2nc3ccccc3s2)cc1)N1CCCCC1 [Example 516] | – | ++ (Between 201% and 300% relative to control) | –
10 | COc1ccc(-c2nc3ccccc3s2)cc1 [Example 582] | – | ++++ (Above 401% relative to control) | –
11 | CCCC(=O)Nc1ccc2oc(-c3ccc(N(CC)CC)cc3)nc2c1 [Example 76, N-(2-(4-(diethylamino)phenyl)benzo[d]oxazol-5-yl)butyramide] | < 200% | – | –
12 | O=C(Cc1cccs1)Nc1ccc(-c2nc3ccccc3[nH]2)cc1 [Example 493] | – | + (Up to 200% relative to control) | –
13 | CC(C)C(=O)Nc1ccc2[nH]c(-c3ccccc3)nc2c1 [Example 188, N-(2-phenyl-1H-benzo[d]imidazol-5-yl)isobutyramide] | 301 to 400% | – | –
14 | CC(C)N(C)C(=O)c1ccc2oc(-c3ccc(Cl)cc3)nc2c1 [Example 278, 2-(4-chlorophenyl)-N-isopropyl-N-methylbenzo[d]oxazole-5-carboxamide] | 301 to 400% | – | –
15 | COc1ccc(C(=O)Nc2ccc3oc(-c4cccnc4)nc3c2)cc1 [Example 42, 4-methoxy-N-(2-(pyridin-3-yl)benzo[d]oxazol-5-yl)benzamide] | < 200% | – | –
16 | Nc1cccc(-c2nc3cc(Cl)ccc3o2)c1 [Example 622] | – | ++++ (Above 401% relative to control) | –
17 | Cc1ccc(C(=O)Nc2ccc3oc(-c4ccc(Cl)cc4)nc3c2)cc1 [Example 90, N-(2-(4-chlorophenyl)benzo[d]oxazol-5-yl)-4-methylbenzamide] | < 200% | – | –
18 | O=C(CSc1nc2ccccc2s1)N1CCCCC1 [Example 617] | – | ++++ (Above 401% relative to control) | –
19 | O=C(Nc1ccc2oc(-c3cccnc3)nc2c1)c1cc(Cl)cc(Cl)c1 [Example 47, 3,5-dichloro-N-(2-(pyridin-3-yl)benzo[d]oxazol-5-yl)benzamide] | < 200% | – | –
20 | Cc1nn(-c2nc3ccccc3[nH]2)c(N)c1-c1ccccc1 [Example 659] | – | +++ (Between 301% and 400% relative to control) | –
21 | CC(C)C(=O)N(C)c1ccc2oc(-c3ccc(Cl)cc3)nc2c1 [Example 320, N-(2-(4-chlorophenyl)benzo[d]oxazol-5-yl)-N-methylisobutyramide] | 201 to 300% | – | –
22 | Nc1ccc2[nH]c(-c3ccc(Cl)cc3)nc2c1 [Example 560] | – | +++ (Between 301% and 400% relative to control) | –
23 | CC(=O)Nc1ccc(-c2nc3cc(NC(=O)C(C)C)ccc3o2)cc1 [Example 374, N-(2-(4-acetamidophenyl)benzo[d]oxazol-5-yl)isobutyramide] | < 200% | – | –
24 | CC(C)C(=O)Nc1ccc2oc(-c3ccc(F)cc3)nc2c1 [Example 258, N-(2-(4-fluorophenyl)benzo[d]oxazol-5-yl)isobutyramide] | 301 to 400% | – | –
25 | COc1ccccc1C(=O)Nc1ccc2oc(-c3ccc(Cl)cc3)nc2c1 [Example 92, N-(2-(4-chlorophenyl)benzo[d]oxazol-5-yl)-2-methoxybenzamide] | < 200% | – | –
26 | Cc1cc(-c2nc3cc(Cl)ccc3o2)ccc1[N+](=O)[O-] [Example 539] | – | + (Up to 200% relative to control) | –
27 | Cc1c(N)cccc1-c1nc2cc(Cl)ccc2o1 [Example 566] | – | + (Up to 200% relative to control) | –

Row | Structure (SMILES) | activity at 10 µM [1] | Activity [2] | also measured
28 | CCS(=O)(=O)c1ccc2oc(-c3ccccc3)nc2c1 [Example 84, 5-(ethylsulfonyl)-2-phenylbenzo[d]oxazole] | 201 to 300% | – | –
29 | O=C(Nc1ccc2oc(-c3ccc(Cl)cc3)nc2c1)c1ccccc1 [Example 88, N-(2-(4-chlorophenyl)benzo[d]oxazol-5-yl)benzamide] | < 200% | – | –
30 | O=C(Nc1ccc2oc(-c3ccc(Cl)cc3)nc2c1)c1cc(Cl)cc(Cl)c1 [Example 95, 3,5-dichloro-N-(2-(4-chlorophenyl)benzo[d]oxazol-5-yl)benzamide] | < 200% | – | –
31 | COc1ccc(-c2nc3ccccc3s2)cc1O [Example 596] | – | ++++ (Above 401% relative to control) | –
32 | O=[N+]([O-])c1ccc2oc(-c3ccccc3)nc2c1 [Example 492] | – | ++ (Between 201% and 300% relative to control) | –
33 | Cc1ccc(-c2nc3cc(C(N)=O)ccc3o2)cc1 [Example 218, 2-p-tolylbenzo[d]oxazole-5-carboxamide] | > 401% | – | –
34 | CC(C)C(=O)Nc1ccc(-c2nc3c(ccc4ccccc43)o2)cc1 [Example 442, N-(4-(naphtho[1,2-d]oxazol-2-yl)phenyl)isobutyramide] | 301 to 400% | – | –
35 | c1ccc(CNc2ccc3oc(-c4ccccc4)nc3c2)cc1 [Example 156, N-benzyl-2-phenylbenzo[d]oxazol-5-amine] | 301 to 400% | – | –
36 | CCC(=O)Nc1ccc(-c2nc3ccccc3s2)cc1 [Example 667] | – | ++ (Between 201% and 300% relative to control) | –
37 | CCCCNc1ccc2oc(-c3ccc(C)cc3)nc2c1 [Example 185, N-butyl-2-p-tolylbenzo[d]oxazol-5-amine] | 301 to 400% | – | –
38 | CC(C)C(=O)Nc1ccc2oc(-c3cccc(Cl)c3)nc2c1 [Example 231, N-(2-(3-chlorophenyl)benzo[d]oxazol-5-yl)isobutyramide] | > 401% | – | –
39 | CCN(CC)S(=O)(=O)c1ccc2oc(-c3ccc(Cl)cc3)nc2c1 [Example 439, 2-(4′-chlorophenyl)-5-(N,N-diethylsulfonamidyl)-benzoxazole] | – | – | Activity [1]: + (Up to 200% relative to control)
40 | COCc1nc2ccccc2[nH]1 [Example 499] | – | + (Up to 200% relative to control) | –
41 | Cc1ccc(-c2nc3cc(N)ccc3s2)cc1 [Example 213, 2-p-tolylbenzo[d]thiazol-5-amine] | < 200% | – | –
42 | CCN(CC)c1ccc(-c2nc3cc(NC(=O)c4ccc(Cl)cc4)ccc3o2)cc1 [Example 63, 4-chloro-N-(2-(4-(diethylamino)phenyl)benzo[d]oxazol-5-yl)benzamide] | < 200% | – | –
43 | CN(C)c1ccc(-c2nc3cc([N+](=O)[O-])ccc3[nH]2)cc1 [Example 509] | – | ++ (Between 201% and 300% relative to control) | –
44 | CCS(=O)(=O)c1ccc(-c2ccc3oc(-c4ccc(Cl)cc4)nc3c2)cc1 [Example 269, 2-(4-chlorophenyl)-5-(4-(ethylsulfonyl)phenyl)benzo[d]oxazole] | < 200% | – | –
45 | CCN(CC)c1ccc(-c2nc3cc(NC(=O)CCc4ccccc4)ccc3o2)cc1 [Example 74, N-(2-(4-(diethylamino)phenyl)benzo[d]oxazol-5-yl)-3-phenylpropanamide] | < 200% | – | –
46 | Cc1cccc(-c2nc3cc(N)ccc3o2)c1 [Example 196, 2-m-tolylbenzo[d]oxazol-5-amine] | < 200% | – | –
47 | CCCCNC(=O)c1ccc2oc(-c3ccc(C)cc3)nc2c1 [Example 176, N-butyl-2-p-tolylbenzo[d]oxazole-5-carboxamide] | 201 to 300% | – | –
48 | Nc1ccc2oc(N3CCOCC3)nc2c1 [Example 360, 2-morpholinobenzo[d]oxazol-5-amine] | < 200% | – | –
49 | Nc1ccc(-c2nc3cc(N)ccc3o2)c(O)c1 [Example 82, 5-amino-2-(5-aminobenzo[d]oxazol-2-yl)phenol] | 201 to 300% | – | –
50 | Cc1ccc(-c2nc3cc(NC(=O)c4ccncc4)ccc3o2)cc1 [Example 114, N-(2-p-tolylbenzo[d]oxazol-5-yl)isonicotinamide] | < 200% | – | –
51 | O=C(NCCc1ccccc1)c1cc2ccccc2o1 [Example 665] | – | ++ (Between 201% and 300% relative to control) | –
52 | CC(C)C(=O)Nc1ccc2oc(-c3ccc(OC(F)(F)F)cc3)nc2c1 [Example 355, N-(2-(4-(trifluoromethoxy)phenyl)benzo[d]oxazol-5-yl)isobutyramide] | < 200% | – | –
53 | CCS(=O)(=O)c1ccc2oc(-c3cccc(Cl)c3Cl)nc2c1 [Example 304, 2-(2,3-diChlorophenyl)-5-(ethylsulfonyl)benzo[d]oxazole] | < 200% | – | –

— patent publication US8501713B2, “Drug combinations for the treatment of duchenne muscular dystrophy” (Summit Corporation PLC, priority 2007, dated 2013)
